According to a compilation of properties of binary mixtures (doi:10.1039/b704843b):

Experiment: xn = mol fraction of the nth substance listed
Conditions: 101 kPa

O + CCCC[n+]1ccn(C)c1.F[P-](F)(F)(F)(F)F
x1 = 1
Conditions	viscosity [mPa·s]
298.15 K	0.894
308.15 K	0.717
313.15 K	0.659

CCCC[n+]1ccn(C)c1.F[P-](F)(F)(F)(F)F + O
viscosity [mPa·s]
Conditions	298.15 K	303.15 K	308.15 K	313.15 K	318.15 K
x1 = 0.0003	0.909	0.809	0.72	0.662	0.604
x1 = 0.0006	0.917	0.815	0.725	0.667	0.609
x1 = 0.001	0.923	0.822	0.73	0.672	0.614
x1 = 0.0013	–	0.83	0.737	0.678	0.62
